Experimental data: patent US20170096629A1, “FILTRATION DEVICE AND SYSTEM” (Universite Technologie de Compiegne - UTC, priority 2009, published 2017)

Test: diffusion coefficient of molecules through a filtration membrane, co-current filtration system, regression of analytic model
Type: physicochemical
Settings: least-squares regression of analytic model on concentration ratio versus time
Source text: Such systems may also be used for characterizing a filtration membrane 130. For example, it is possible to evaluate a diffusion coefficient of a molecule for a given membrane 130 from a physical model and measurements of concentration of the molecule in the first chamber 110 and/or the second chamber 120 versus time. The co-current system may be used for calibrating the model and estimating the diffiusion coefficient, and the countercurrent system may be used for checking the diffusion coefficient or vice versa.
In particular, the applicant modeled the time-dependent change of the concentration in the first chamber 110, in the case when a fluid to be filtered circulates in the second chamber 120, with the following equations: • in the case of a co-current flow (like in FIG. 9): […]
and • C1(t) represents the concentration in the first chamber 110 as a function of time t, • L represents the (common) length of the first and second chambers 110, 120, • b represents the (common) width of the first and second chambers 110, 120, • Qf represents the filtration flow rate, • V1 represents the volume of the first chamber 110, • V2 represents the volume of the second chamber 120, • C1o represents the initial concentration in the first chamber 110, • C1∞ represents the equilibrium concentration in the first chamber 110, • Dm represents the diffusion coefficient of the molecule to be filtered for the membrane 130, and • δ represents the thickness of the membrane.
By means of these models, it is possible to determine the values of the diffusion coefficient Dm of the molecules tested for a given membrane 130. For this, for example it is possible to operate in the co-current mode and measure the disappearance of the molecule in the second chamber 120 (and therefore its appearance in the first chamber 110).
In FIGS. 11 and 12 the change in the concentration-over-initial-concentration-in-the-second-chamber 120 ratio is illustrated versus time for given experimental conditions, for urea (FIG. 11) and vitamin B12 (FIG. 12) respectively, with several types of membrane. Moreover, the applicant has also determined this ratio for albumin (graph not shown).
The experimental results are illustrated, for an experiment with a membrane of high porosity (of the 8F type) by icons □, Δ, and for an experiment with a membrane of low porosity (of the 1 FPH type) by icons: *, ◯. A regression of the analytic model is then made for example with a minimization by least squares, in which it is possible to obtain experimentally the diffusion coefficients in (m^2/s) listed in the following table: […]

Row | Molecule | diffusion coefficient Dm (membrane 1 FPH (low porosity)) | diffusion coefficient Dm (membrane 8F (high porosity))
1 | NC(N)=O [Urea, urea] | 2 × 10^−12 m^2/s | 2 × 10^−11 m^2/s
2 | albumin | 9 × 10^−14 m^2/s | 2 × 10^−13 m^2/s
3 | vitamin B12 | 4 × 10^−13 m^2/s | 6 × 10^−12 m^2/s
